Values after ≈ are worked out from the molar mass of the structure shown.
How the values were obtained:
Assay in all cases: MIC in broth
Type in all cases: cell-based
Streptococcus faecalia I = tested on: Streptococcus faecalia I
Serratia marcescens US20 = tested on: Serratia marcescens US20
Proteus morganii 1580 = details: Morganella morganii
[1] = tested on: Streptococcus pyogenes CN10
[2] = tested on: Staphylococcus aureus Russell [MB9]
Proteus rettgeri WM16 = details: Providencia rettgeri
[3] = tested on: Enterobacter cloacae N1 [T753]
[4] = tested on: Pseudomonas aeruginosa A [11]
[5] = tested on: Staphylococcus aureus Oxford
Bacillus subtilis A = tested on: Bacillus subtilis A
Citrobacter freundii E8 = tested on: Citrobacter freundii E8
[6] = tested on: Escherichia coli JT39 [E96]
Proteus vulgaris W091 = tested on: Proteus vulgaris W091
[7] = tested on: Staphylococcus aureus 1517
[8] = tested on: Proteus mirabilis 977 [13]
[9] = tested on: Salmonella typhimurium CT10; details: Salmonella enterica
[10] = tested on: Klebsiella aerogenes A [T767]
[11] = tested on: Streptococcus pneumoniae CN33
Shigella sonnei MB11967 = tested on: Shigella sonnei MB11967
Escherichia coli ESS = tested on: Escherichia coli ESS
[12] = tested on: Escherichia coli 0111 [E8]

CC(=O)NCCSC1=C(C(=O)O)N2C(=O)[C@H]([C@@H](C)n3cc(C(=O)O)nn3)[C@H]2C1 [Example 4, Disodium (SR,6S) - 3 - (2 - acetamidoethylthio) - 6 - [(R) - 1 - (4 - carboxytriazol - 1 - yl)ethyl] - 7 - oxo - 1 - azabicyclo [3.2.0.]hept - 2 - ene - 2 - carboxylate.]
MIC (Streptococcus faecalia I): 100 µg/mL | MIC (Serratia marcescens US20): 6.2 µg/mL | MIC (Proteus morganii 1580): 25 µg/mL | MIC [1]: 1.6 µg/mL | MIC [2]: 6.2 µg/mL | MIC (Proteus rettgeri WM16): 6.2 µg/mL | MIC [3]: 3.1 µg/mL | MIC [4]: 100 µg/mL | MIC [5]: 6.2 µg/mL | MIC (Bacillus subtilis A): 3.1 µg/mL | MIC (Citrobacter freundii E8): 1.6 µg/mL | MIC [6]: 3.1 µg/mL | MIC (Proteus vulgaris W091): 6.2 µg/mL | MIC [7]: > 100 µg/mL | MIC [8]: 12.5 µg/mL | MIC [9]: 6.2 µg/mL | MIC [10]: 3.1 µg/mL | MIC [11]: 1.6 µg/mL | MIC (Shigella sonnei MB11967): 12.5 µg/mL | MIC (Escherichia coli ESS): 1.6 µg/mL

CC(=O)N/C=C/SC1=C(C(=O)O)N2C(=O)[C@H]([C@@H](C)n3cc(C(=O)O)nn3)[C@H]2C1 [Example 6, Disodium (5R,6S)-3-[(E)-2-acetamidoethenylthio]-6-[(R)-1-(4-carboxytriazol-1-yl)ethyl]-7-oxo-1-azabicyclo [3.2.0.] hept-2-ene-2-carboxylate]
MIC (Streptococcus faecalia I): 100 µg/mL | MIC (Serratia marcescens US20): 6.2 µg/mL | MIC (Proteus morganii 1580): 12.5 µg/mL | MIC [2]: 6.2 µg/mL | MIC (Proteus rettgeri WM16): 3.1 µg/mL | MIC [3]: 25 µg/mL | MIC [4]: 50 µg/mL | MIC [5]: 6.2 µg/mL | MIC (Bacillus subtilis A): 6.2 µg/mL | MIC (Citrobacter freundii E8): 25 µg/mL | MIC [6]: 3.1 µg/mL | MIC (Proteus vulgaris W091): 12.5 µg/mL | MIC [7]: 25 µg/mL | MIC [8]: 12.5 µg/mL | MIC [9]: 1.6 µg/mL | MIC [10]: 1.6 µg/mL | MIC [12]: 12.5 µg/mL | MIC (Shigella sonnei MB11967): 3.1 µg/mL | MIC (Escherichia coli ESS): 1.6 µg/mL

CC(=O)N/C=C/SC1=C(C(=O)O)N2C(=O)[C@H]([C@@H](C)n3cc(C(=O)OCCN)nn3)[C@H]2C1 [Example 7, (5R,6S)-3-[(E)-2-acetamidoethenylthio]-6-[(R)-1-(4-(2-aminoethyloxycarbonyl)triazol-1-yl]ethyl]-7-oxo-1-azabicyclo[3.2.0.]hept-2-ene-2-carboxylic acid]
MIC (Streptococcus faecalia I): 50 µg/mL (≈ 111 µM) | MIC (Serratia marcescens US20): 3.1 µg/mL (≈ 6.88 µM) | MIC [1]: 0.4 µg/mL (≈ 0.888 µM) | MIC [2]: 0.4 µg/mL (≈ 0.888 µM) | MIC (Proteus rettgeri WM16): 6.2 µg/mL (≈ 13.8 µM) | MIC [3]: 1.6 µg/mL (≈ 3.55 µM) | MIC [4]: 100 µg/mL (≈ 222 µM) | MIC [5]: 0.4 µg/mL (≈ 0.888 µM) | MIC (Bacillus subtilis A): 0.8 µg/mL (≈ 1.78 µM) | MIC (Citrobacter freundii E8): 0.8 µg/mL (≈ 1.78 µM) | MIC [6]: 0.8 µg/mL (≈ 1.78 µM) | MIC (Proteus vulgaris W091): 25 µg/mL (≈ 55.5 µM) | MIC [7]: 12.5 µg/mL (≈ 27.7 µM) | MIC [8]: 25 µg/mL (≈ 55.5 µM) | MIC [9]: 1.6 µg/mL (≈ 3.55 µM) | MIC [10]: 3.1 µg/mL (≈ 6.88 µM) | MIC [12]: 1.6 µg/mL (≈ 3.55 µM) | MIC (Shigella sonnei MB11967): 1.6 µg/mL (≈ 3.55 µM)
